The text below walks through data of US5874432A, “Saccharin derivatives useful as proteolytic enzyme inhibitors and compositions and method of use thereof” (priority 1997, dated 1999).

One assay concerns the target T1, human leukocyte elastase (Homo sapiens, UniProt P08246).
T1 sequence (P08246 30-267): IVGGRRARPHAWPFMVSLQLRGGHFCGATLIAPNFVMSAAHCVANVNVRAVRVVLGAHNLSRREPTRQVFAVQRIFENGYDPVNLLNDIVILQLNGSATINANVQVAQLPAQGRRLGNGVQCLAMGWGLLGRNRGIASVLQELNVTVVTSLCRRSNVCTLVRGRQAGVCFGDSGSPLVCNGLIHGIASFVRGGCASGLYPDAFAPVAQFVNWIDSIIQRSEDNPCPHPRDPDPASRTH
The assay is described as follows: elastase inhibition using human leukocyte elastase (kon and Ki*). The format is biochemical. To be noted: for Ki: Ki* = koff/kon; for kon: read-out: Elastase 10^-3 × kon.

For a further assay, the target named is α-Chymotrypsin (Bos taurus, UniProt P00766). In words: α-chymotrypsin inhibition (kon and Ki*). The format is biochemical. To be noted: for Ki: Ki* = koff/kon. As for the experimental part: Measurement of the inhibition constant, Ki, of a HLE-inhibitor complex has been described for "truly reversible inhibition constants" usually concerning competitive inhibitors. [Cha, Biochem. Pharmacol., 24, 2177-2185 (1975)]. […] Thus, instead of measuring a Ki, a Ki * is calculated which is defined as the ratio of the koff /kon, the rate of reactivation of the enzyme to the rate of inactivation of the enzyme. The values of koff and kon are measured and Ki * is then calculated. The rate of inactivation, kon, of enzymatic activity was determined for the compounds tested by measuring the enzyme activity of an aliquot of the respective enzyme as a function of time after addition of the test compound. […] The rate of inactivation is then equal to [formula] where [I] is the concentration of the inhibiting compound. The reactivation constant, koff, is similarly determined and the inhibition constant, Ki *, is then calculated as Ki *=koff /kon The values obtained for kon and Ki * for specific substituted saccharin derivatives are shown in TABLE F, the compounds being identified by the Example numbers above where their preparations are described.

[1] abbreviates: rate of inactivation of enzyme, value is 10^-3 × kon.
[2] abbreviates: read-out: α-Chymotrypsin 10^-3 × kon.

Where two headings read alike, the source gives them in different places.

A word on the Ki: it is the equilibrium dissociation constant of an inhibitor or competing ligand from its target. In general, kon refers to the second-order rate constant of association. On to `CC(=O)OCN1C(=O)c2c(C)cccc2S1(=O)=O` [Example 1, 2-acetoxymethyl-4-methylsaccharin], for which the inhibition constant Ki came out at 102 nM on human leukocyte elastase (read-out: Elastase Ki *) and 917 nM at α-Chymotrypsin. In addition, the kon on human leukocyte elastase (setting [1]) turned out to be 630 M⁻¹ s⁻¹; on α-Chymotrypsin (setting [2]), 1200 M⁻¹ s⁻¹.
Take `CC(=O)OCN1C(=O)c2c(Cl)cccc2S1(=O)=O` [Example 2, 2-acetoxymethyl-4-chlorosaccharin]: the Ki on human leukocyte elastase (read-out: Elastase Ki *) amounted to 45 nM; on α-Chymotrypsin, 51 nM. For the same compound, the kon amounted to 4900 M⁻¹ s⁻¹ at human leukocyte elastase (setting [1]) and 2900 M⁻¹ s⁻¹ at α-Chymotrypsin (setting [2]).
On to `O=C1c2c(Cl)cccc2S(=O)(=O)N1CCl` [Example 3, 2-chloromethyl-4-chlorosaccharin], for which the inhibition constant (Ki) was 0.5 nM on human leukocyte elastase (read-out: Elastase Ki *) and 26 nM on α-Chymotrypsin. Moreover, the association rate constant (kon) came to 450000 M⁻¹ s⁻¹ on human leukocyte elastase (setting [1]) and 5800 M⁻¹ s⁻¹ at α-Chymotrypsin (setting [2]).
In the same order, the values of `O=C1c2c(Cl)cccc2S(=O)(=O)N1Cn1nnn(-c2ccccc2)c1=S` [Example 5, 4-chloro-2-(4-phenyl-5-thioxotetrazolin-1-ylmethyl)saccharin] are 6 nM, 25 nM, 44000 M⁻¹ s⁻¹ and 6000 M⁻¹ s⁻¹.
As to `CC(=O)Nc1cccc(-n2nnnc2SCN2C(=O)c3ccccc3S2(=O)=O)c1` [Example 6, 2-[1-(3-acetamidophenyl)-1H-tetrazol-5-ylthiomethyl]saccharin], the Ki on human leukocyte elastase (read-out: Elastase Ki *) was 15 nM; on α-Chymotrypsin, 300 nM. Besides, the kon at human leukocyte elastase (setting [1]) was found to be 5500 M⁻¹ s⁻¹; at α-Chymotrypsin (setting [2]), 3700 M⁻¹ s⁻¹.
For `Cn1nnnc1SCN1C(=O)c2ccccc2S1(=O)=O` [Example 8, 2-(1-methyl-1H-tetrazol-5-ylthiomethyl)saccharin], the kon at human leukocyte elastase (setting [1]) was determined as 1000 M⁻¹ s⁻¹; at α-Chymotrypsin (setting [1]), 2100 M⁻¹ s⁻¹. For the same compound, the affinity at α-Chymotrypsin, expressed as Ki, was 523 nM.
With `O=C1c2ccccc2S(=O)(=O)N1C[S+]([O-])c1nnnn1-c1ccccc1` (centres unmarked) [Example 10, 2-(1-phenyl-1H-tetrazol-5-ylsulfinylmethyl)saccharin], the Ki on human leukocyte elastase (read-out: Elastase Ki *) came out at 11 nM; on α-Chymotrypsin it was 157 nM. In addition, the kon at human leukocyte elastase (setting [1]) and at α-Chymotrypsin (setting [2]) was 7000 M⁻¹ s⁻¹ in each case.
As to `O=C1c2ccccc2S(=O)(=O)N1CS(=O)(=O)c1ccccc1` [Example 12, 2-(phenylsulfonylmethyl)saccharin], the figures for the Ki at human leukocyte elastase (read-out: Elastase Ki *) and at α-Chymotrypsin were 82 nM and 1000 nM, respectively. Also, the values for the kon at human leukocyte elastase (setting [1]) and at α-Chymotrypsin (setting [2]) were 970 M⁻¹ s⁻¹ and 1100 M⁻¹ s⁻¹, respectively.
`O=C1c2ccccc2S(=O)(=O)N1C[S+]([O-])c1ncccn1` (centres unmarked) [Example 13, 2-(2-pyrimidylsulfinylmethyl)saccharin]: the Ki at human leukocyte elastase (read-out: Elastase Ki *) stood at 285 nM; on α-Chymotrypsin, 423 nM. Further, the results for the association rate constant (kon) on human leukocyte elastase (setting [1]) and at α-Chymotrypsin (setting [2]) were 300 M⁻¹ s⁻¹ and 2600 M⁻¹ s⁻¹, respectively.
Consider `O=C1c2ccccc2S(=O)(=O)N1CS(=O)(=O)c1ncccn1` [Example 14, 2-(2-pyrimidylsulfonylmethyl)saccharin], for which the Ki turned out to be 138 nM at human leukocyte elastase (read-out: Elastase Ki *) and 392 nM at α-Chymotrypsin. Also, the kon amounted to 600 M⁻¹ s⁻¹ at human leukocyte elastase (setting [1]) and 2800 M⁻¹ s⁻¹ at α-Chymotrypsin (setting [2]).
With `O=C1c2c(-c3ccccc3)cccc2S(=O)(=O)N1CCl` [Example 18, 2-chloromethyl-4-phenylsaccharin], the inhibition constant Ki worked out at 100 nM at human leukocyte elastase (read-out: Elastase Ki *) and 620 nM at α-Chymotrypsin. Also, the on-rate (kon) at human leukocyte elastase (setting [1]) worked out at 1000 M⁻¹ s⁻¹; at α-Chymotrypsin (setting [2]), 210 M⁻¹ s⁻¹.
Consider `O=C1c2ccccc2S(=O)(=O)N1CSc1nnnn1CCN1CCOCC1` [Example 30BG], for which the inhibition constant Ki on human leukocyte elastase (read-out: Elastase Ki *) was 50 nM. Further, the on-rate constant (kon) at human leukocyte elastase (setting [1]) amounted to 1700 M⁻¹ s⁻¹.
Take `CC(C)c1cccc2c1C(=O)N(CSc1nnnn1CCN1CCOCC1)S2(=O)=O` [Example 30BI]: the Ki at human leukocyte elastase (read-out: Elastase Ki *) is 0.5 nM. The on-rate (kon) on human leukocyte elastase (setting [1]) turned out to be 39000 M⁻¹ s⁻¹.
Consider `Nc1cccc(-n2nnnc2SCN2C(=O)c3ccccc3S2(=O)=O)c1` [Example 30C], for which, at human leukocyte elastase (read-out: Elastase Ki *), the Ki amounted to 17 nM. Moreover, the kon at human leukocyte elastase (setting [1]) turned out to be 2500 M⁻¹ s⁻¹.
Regarding `O=C(O)c1ccc(-n2nnnc2SCN2C(=O)c3ccccc3S2(=O)=O)cc1` [Example 30D], the inhibition constant Ki on human leukocyte elastase (read-out: Elastase Ki *) stood at 85 nM. Besides, the kon at human leukocyte elastase (setting [1]) worked out at 800 M⁻¹ s⁻¹.
Regarding `COC(=O)c1cc(C(=O)OC)cc(-n2nnnc2SCN2C(=O)c3ccccc3S2(=O)=O)c1` [Example 30E], on human leukocyte elastase (read-out: Elastase Ki *), the inhibition constant Ki is 12.7 nM. Besides, the kon at human leukocyte elastase (setting [1]) stood at 7300 M⁻¹ s⁻¹.
In the same order, the values of `O=C1C=Cc2ccc(OCN3C(=O)c4ccccc4S3(=O)=O)c3cccc1c23` [Example 30G] are 7.7 nM and 9300 M⁻¹ s⁻¹.
For `O=C1c2ccccc2S(=O)(=O)N1CSc1nncn1-c1ccccc1` [Example 30I], the Ki at human leukocyte elastase (read-out: Elastase Ki *) was 650 nM. Also, the kon on human leukocyte elastase (setting [1]) amounted to 450 M⁻¹ s⁻¹.
In the same order, the values of `CCc1cccc2c1C(=O)N(CSc1nnnn1CCN1CCOCC1)S2(=O)=O` [Example 30J] are 10 nM and 14000 M⁻¹ s⁻¹.
For the compound `CCOc1ccc(OCCOCCOC)c2c1C(=O)N(CSc1nnnn1-c1ccccc1)S2(=O)=O` [Example 30L], at human leukocyte elastase (read-out: Elastase Ki *), the inhibitory constant (Ki) is 7.6 nM. Also, the on-rate constant (kon) on human leukocyte elastase (setting [1]) was determined as 6500 M⁻¹ s⁻¹.
In the same order, the values of `COCCOCCOc1ccc(OC)c2c1S(=O)(=O)N(CSc1nnnn1-c1ccccc1)C2=O` [Example 30M] are 10 nM and 1000 M⁻¹ s⁻¹.
The matching figures for `O=C1c2ccccc2S(=O)(=O)N1CSc1nnc2ccccn12` [Example 30N]: 220 nM and 250 M⁻¹ s⁻¹.
Turning to `O=C1c2ccccc2S(=O)(=O)N1CSc1nnnn1-c1cccnc1` [Example 30Q], at human leukocyte elastase (read-out: Elastase Ki *), the inhibition constant (Ki) is 70.4 nM. In addition, the kon at human leukocyte elastase (setting [1]) was 1380 M⁻¹ s⁻¹.
For `O=C1c2ccccc2S(=O)(=O)N1Cn1nnn(-c2cccnc2)c1=S` [Example 30R], the Ki on human leukocyte elastase (read-out: Elastase Ki *) worked out at 36 nM. Besides, on human leukocyte elastase (setting [1]), the kon is 2300 M⁻¹ s⁻¹.
`Cn1nnc(=S)n1CN1C(=O)c2ccccc2S1(=O)=O` [Example 30W]: the Ki at human leukocyte elastase (read-out: Elastase Ki *) is 80 nM. In addition, the “Elastase 10^-3 × kon” value on human leukocyte elastase (setting [1]) was 1.5 M^-1 sec^-1.
For `Cn1nnc(SCN2C(=O)c3ccccc3S2(=O)=O)n1` [Example 30X], the inhibitory constant (Ki) on human leukocyte elastase (read-out: Elastase Ki *) was 143 nM. Moreover, at human leukocyte elastase (setting [1]), the kon came out at 550 M⁻¹ s⁻¹.
`CC(C)c1cccc2c1C(=O)N(Cn1nnn(-c3cccnc3)c1=S)S2(=O)=O` [Example 30Z]: on human leukocyte elastase (read-out: Elastase Ki *), the inhibitory constant (Ki) came out at 0.5 nM. Besides, the kon at human leukocyte elastase (setting [1]) was 70000 M⁻¹ s⁻¹.
As for `O=C1c2ccc([N+](=O)[O-])cc2S(=O)(=O)N1CSc1nnnn1-c1ccccc1` [Example 31C], at human leukocyte elastase (read-out: Elastase Ki *), the inhibitory constant (Ki) amounted to 300 nM. In addition, at human leukocyte elastase (setting [1]), the kon was found to be 3400 M⁻¹ s⁻¹.
For `O=C1c2ccccc2S(=O)(=O)N1CS(=O)(=O)c1c(Cl)cccc1Cl` [Example 32A, 2-(2,6-dichlorophenylsulfonylmethyl)saccharin], the Ki on human leukocyte elastase (read-out: Elastase Ki *) was 145 nM. Besides, the association rate constant (kon) on human leukocyte elastase (setting [1]) was found to be 600 M⁻¹ s⁻¹.
`O=C1c2ccccc2S(=O)(=O)N1CSc1nnc(SCCN2CCOCC2)s1` [Example 33, 2-(5-[2-(4-morpholinyl)ethylthio]-1,3,4-thiadiazol-2-ylthiomethyl)saccharin]: on human leukocyte elastase (read-out: Elastase Ki *), the inhibition constant Ki turned out to be 12 nM. In addition, the kon on human leukocyte elastase was determined as 3600 M⁻¹ s⁻¹.
Regarding `CN(C)CCSc1nnc(SCN2C(=O)c3ccccc3S2(=O)=O)s1` [Example 33B, 2-(5-[2-(N,N-dimethylamino)-ethylthio]-1,3,4-thiadiazol-2-ylthiomethyl)saccharin], at human leukocyte elastase (read-out: Elastase Ki *), the inhibitory constant (Ki) was 18 nM. Moreover, at human leukocyte elastase (setting [1]), the kon turned out to be 4000 M⁻¹ s⁻¹.
As to `O=C1c2ccccc2S(=O)(=O)N1CSc1nnc(SCCN2CCCCC2)s1` [Example 33C, 2-(5-[2-(1-piperidinyl)-ethylthio]-1,3,4-thiadiazol-2-ylthiomethyl)saccharin], the Ki at human leukocyte elastase (read-out: Elastase Ki *) was determined as 350 nM. Besides, the on-rate constant (kon) at human leukocyte elastase (setting [1]) was 200 M⁻¹ s⁻¹.
Turning to `O=C(O)Cn1nnnc1SCN1C(=O)c2ccccc2S1(=O)=O` [Example 34, 2-[1-(2-carboxymethyl)-1H-tetrazol-5-ylthiomethyl]saccharin], at human leukocyte elastase (read-out: Elastase Ki *), the inhibition constant Ki was 256 nM. Further, the kon at human leukocyte elastase (setting [1]) was determined as 400 M⁻¹ s⁻¹.
As to `O=C(O)CCC(=O)Nc1cccc(-n2nnnc2SCN2C(=O)c3ccccc3S2(=O)=O)c1` [Example 35, 2-[1-(3-succinoylaminophenyl)-1H-tetrazol-5-ylthiomethyl]saccharin], the inhibition constant Ki on human leukocyte elastase (read-out: Elastase Ki *) came to 22 nM. For the same compound, the on-rate (kon) on human leukocyte elastase (setting [1]) is 3600 M⁻¹ s⁻¹.
Turning to `O=C1c2ccccc2S(=O)(=O)N1/C=C/CSc1nnnn1-c1ccccc1` [Example 38, trans-2-[3-(1-phenyl-1H-tetrazol-5-ylthio)-1-propenyl]saccharin], the Ki at human leukocyte elastase (read-out: Elastase Ki *) amounted to 2 nM. Also, the kon at human leukocyte elastase (setting [1]) worked out at 43000 M⁻¹ s⁻¹.
As for `CC(C)c1cccc2c1C(=O)N(CN1C(=O)CNS1(=O)=O)S2(=O)=O` [Example 42D], the inhibition constant Ki at human leukocyte elastase (human leukocyte elastase, read-out: Ki * values, elastase inhibition (Examples 41-57)) came to 1000 nM.
